This is an account of results in patent US12565489B2, “Heterocyclyl pyrimidines and triazines as novel fungicides” (Bayer Aktiengesellschaft, priority 2020, dated 2026).

Data set [1] in a line: Measurement of Log P values by HPLC on reversed phase columns (EEC directive 79/831 Annex V.A8). The conditions noted are these: LogP. In kind it is physicochemical. In a few lines:
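Reversed-phase HPLC per EEC directive 79/831 Annex V.A8 with UV detection, 10→95% acetonitrile linear gradient; eluent either 0.1% formic acid (acidic), 0.001 molar ammonium acetate (neutral) or 0.1% phosphoric acid (acidic). Calibrated with C3–C16 straight-chain alkan-2-ones by linear interpolation of retention times; multiple values joined by "+".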

The subject of data set [2] is Pyricularia oryzae. Briefly: microbe, parasite or virus in culture. It counts as cell-based. Conditions: 120 h, read-out: efficacy (inhibition of fungal growth).
Data set [3] relates to Colletotrichum lindemuthianum. Briefly: Colletotrichum lindemuthianum in vitro cell test. In kind it is cell-based. The conditions noted are these: 144 h, 20 ppm of active ingredient, 6 days incubation, liquid culture, spectrometric measurement of mycelium growth, read-out: efficacy (inhibition of fungal growth). How it is done: • Solvent: DMSO • Culture medium: 14.6 g anhydrous D-glucose (VWR), 7.1 g Mycological Peptone (Oxoid), 1.4 g granulated Yeast Extract (Merck), QSP 1 liter • Inoculum: spore suspension Fungicides were solubilized in DMSO and the solution used to prepare the required range of concentrations. […] A spore suspension of C. lindemuthianum was prepared and diluted to the desired spore density. Fungicides were evaluated for their ability to inhibit spores germination and mycelium growth in liquid culture assay. The compounds were added in the desired concentration to the culture medium with spores. After 6 days incubation, fungi-toxicity of compounds was determined by spectrometric measurement of mycelium growth. Inhibition of fungal growth was determined by comparing the absorbance values in wells containing the fungicides with the absorbance in control wells without fungicides.

In data set [4] the test system is Botrytis cinerea. Briefly: Botrytis cinerea in vitro cell test. It counts as cell-based. The conditions noted are these: 144 h, 20 ppm of active ingredient, 6 days incubation, liquid culture, spectrometric measurement of mycelium growth, read-out: efficacy (inhibition of fungal growth). How it is done: • Solvent: DMSO • Culture medium: 1 g KH2PO4 (VWR), 1 g K2HPO4 (VWR), 0.5 g Urea (VWR), 3 g KNO3 (Prolabo), 10 g saccharose (VWR), 0.5 g MgSO4, 7H2O (Sigma), 0.07 g CaCl2, 2H2O (Prolabo), 0.2 mg MnSO4, H2O (Sigma), 0.6 mg CuSO4, 5H2O (Sigma), 7.9 mg ZnSO4, 7H2O (Sigma), 0.1 mg H3BO3 (Merck), 0.14 mg NaMoO4, 2H2O (Sigma), 2 mg thiamine (Sigma), 0.1 mg biotine (VWR), 4 mg FeSO4, 7H2O (Sigma), QSP 1 liter • Inoculum: spore suspension Fungicides were solubilized in DMSO and the solution used to prepare the required range of concentrations. […] A spore suspension of B. cinerea was prepared and diluted to the desired spore density. Fungicides were evaluated for their ability to inhibit spore germination and mycelium growth in liquid culture assay. The compounds were added in the desired concentration to the culture medium with spores. After 6 days incubation, fungi-toxicity of compounds was determined by spectrometric measurement of mycelium growth. Inhibition of fungal growth was determined by comparing the absorbance values in wells containing the fungicides with the absorbance in control wells without fungicides.

The test system of data set [5] is Alternaria brassicae. Briefly: In vivo preventive test on Alternaria brassicae (leaf spot on radish or cabbage). The conditions noted are these: 144 h, 500 ppm of active ingredient, preventive spray on young radish or cabbage plants, evaluated 6 days after inoculation, read-out: efficacy. On the procedure:
The active ingredients were made soluble and homogenized in a mixture of Dimethyl sulfoxide/Acetone//Tween®80 and then diluted in water to the desired concentration. The young plants of radish or cabbage were treated by spraying the active ingredient prepared as described above. Control plants were treated only with an aqueous solution of Acetone/Dimethyl sulfoxide/Tween® 80. After 24 hours, the plants were contaminated by spraying the leaves with an aqueous suspension of Alternaria brassicae spores.

The test system of data set [6] is Botrytis cinerea. Briefly: In vivo preventive test on Botrytis cinerea (grey mould). Conditions: 500 ppm of active ingredient, preventive spray on young gherkin or cabbage plants, evaluated 4 to 5 days after inoculation, read-out: efficacy. How it is done:
The active ingredients were made soluble and homogenized in a mixture of Dimethyl sulfoxide/Acetone//Tween®80 and then diluted in water to the desired concentration. The young plants of gherkin or cabbage were treated by spraying the active ingredient prepared as described above. Control plants were treated only with an aqueous solution of Acetone/Dimethyl sulfoxide/Tween® 80. After 24 hours, the plants were contaminated by spraying the leaves with an aqueous suspension of Botrytis cinerea spores.

For data set [7], the system named is Sphaerotheca fuliginea. Briefly: In vivo preventive test on Sphaerotheca fuliginea (powdery mildew on cucurbits). Conditions: Podosphaera fuliginea, 192 h; 500 ppm of active ingredient; preventive spray on young gherkin plants; evaluated 8 days after inoculation; read-out: efficacy. On the procedure:
The active ingredients were made soluble and homogenized in a mixture of Dimethyl sulfoxide/Acetone//Tween®80 and then diluted in water to the desired concentration. The young plants of gherkin were treated by spraying the active ingredient prepared as described above. Control plants were treated only with an aqueous solution of Acetone/Dimethyl sulfoxide/Tween® 80. After 24 hours, the plants were contaminated by spraying the leaves with an aqueous suspension of Sphaerotheca fuliginea spores.

Data set [8] has as its system Colletotrichum lindemuthianum. Briefly: In vivo preventive test on Colletotrichum lindemuthianum (leaf spot on bean). Conditions: 168 h, 500 ppm of active ingredient, preventive spray on young bean plants, evaluated 7 days after inoculation, read-out: efficacy. On the procedure:
The active ingredients were made soluble and homogenized in a mixture of Dimethyl sulfoxide/Acetone//Tween®80 and then diluted in water to the desired concentration. The young plants of bean were treated by spraying the active ingredient prepared as described above. Control plants were treated only with an aqueous solution of Acetone/Dimethyl sulfoxide/Tween® 80. After 24 hours, the plants were contaminated by spraying the leaves with an aqueous suspension of Colletotrichum lindemuthianum spores.

Broadly, the chromatographic logP is lipophilicity estimated from chromatographic retention. Higher therefore signals higher lipophilicity. By inhibition is commonly meant the percentage by which the read-out fell short of the control.

In turn, `Cc1ccc(CC2CON=C(c3nc(C4CC4)ncc3Oc3cccc(C(F)(F)F)c3)N2)c(C)c1` (racemic) [Compound I-001, (5RS)-3-{2-cyclopropyl-5-[3-(trifluoro-methyl)phenoxy]pyrimidin-4-yl}-5-(2,4-dimethylbenzyl)-5,6-dihydro-4H-1,2,4-oxadiazine] displayed a chromatographic logP in data set [1] of 5.16. Besides, the inhibition at 20 ppm was 80 to 89% in data set [2], 90 to 100% in data set [3] and 90 to 100% in data set [4]. In addition, the pest or weed control at 500 ppm in data set [5], in data set [6], in data set [7] and in data set [8] was 90 to 100% throughout.

Molecule `Cc1ccc(CC2CON=C(c3nc(C)ncc3Oc3cccc(C(F)(F)F)c3)N2)c(C)c1` (racemic) [Compound I-002, (5RS)-5-(2,4-dimethylbenzyl)-3-{2-methyl-5-[3-(trifluoro-methyl)phenoxy]pyrimidin-4-yl}-5,6-dihydro-4H-1,2,4-oxadiazine] had a chromatographic logP in data set [1] of 4.33. Also, the inhibition at 20 ppm in data set [2], in data set [3] and in data set [4] was 90 to 100% in each case. Besides, the pest or weed control at 500 ppm in data set [5], in data set [6], in data set [7] and in data set [8] was 90 to 100% throughout.

In turn, `Cc1cccc(Oc2cnc(C)nc2C2=NOC[C@@H](Cc3ccc(C)cc3C)N2)c1` (racemic) [Compound I-004] displayed a chromatographic logP in data set [1] of 3.95. The inhibition at 20 ppm in data set [2], in data set [3] and in data set [4] was 90 to 100% throughout. In addition, the pest or weed control at 500 ppm in data set [5], in data set [6], in data set [7] and in data set [8] was 90 to 100% throughout.

In data set [1], `Cc1ccc(C[C@@H]2CON=C(c3nc(C)ncc3Oc3cccc(Cl)c3F)N2)c(Cl)c1` (racemic) [Compound I-005] had a chromatographic logP of 4.19. For the same molecule, the inhibition at 20 ppm in data set [2] was 80 to 89%; in data set [3], 90 to 100%; in data set [4], 90 to 100%. In addition, the pest or weed control at 500 ppm in data set [5], in data set [6], in data set [7] and in data set [8] was 90 to 100% throughout.

Molecule `C=Cc1ccc(C[C@@H]2CON=C(c3nc(C)ncc3Oc3cccc(C(F)(F)F)c3)N2)c(C)c1` (racemic) [Compound I-006] showed a chromatographic logP in data set [1] of 4.44. The results for the inhibition at 20 ppm in data set [2], in data set [3] and in data set [4] were 70 to 79%, 90 to 100% and 90 to 100%, respectively. The pest or weed control at 500 ppm in data set [5] is 90 to 100%; in data set [6] it was 80 to 89%; in data set [7], 90 to 100%; in data set [8], 90 to 100%.

Take `Cc1ccc(C[C@@H]2CON=C(c3nc(C)ncc3Oc3cccc(C4CC4)c3F)N2)c(Cl)c1` (racemic) [Compound I-008]: the chromatographic logP in data set [1] is 4.49. The inhibition at 20 ppm in data set [2], in data set [3] and in data set [4] was 90 to 100% in each case. Moreover, the pest or weed control at 500 ppm in data set [5], in data set [6], in data set [7] and in data set [8] was 90 to 100% each time.

For the molecule `Cc1ccc(C[C@@H]2CON=C(c3nc(C)ncc3Oc3cccc(Br)c3)N2)c(C)c1` (racemic) [Compound I-009], the chromatographic logP in data set [1] turned out to be 4.44. The inhibition at 20 ppm in data set [2], in data set [3] and in data set [4] was 90 to 100% each time. Moreover, the pest or weed control at 500 ppm in data set [5], in data set [6], in data set [7] and in data set [8] was 90 to 100% in each case.

`Cc1ccc(C[C@@H]2CON=C(c3nc(C)ncc3Oc3cccc(C(F)(F)F)c3)N2)c(Cl)c1` (racemic) [Compound I-013] displayed a chromatographic logP in data set [1] of 4.47. Further, the inhibition at 20 ppm in data set [3] and in data set [4] was 90 to 100% throughout. The pest or weed control at 500 ppm in data set [5], in data set [6], in data set [7] and in data set [8] was 90 to 100% throughout.

`Cc1ccc(C[C@@H]2CON=C(c3nc(C)ncc3Oc3cccc(C4CC4)c3F)N2)c(C)c1` (racemic) [Compound I-016] registered a chromatographic logP in data set [1] of 4.41. Also, the inhibition at 20 ppm in data set [2], in data set [3] and in data set [4] was 90 to 100% each time. Also, the pest or weed control at 500 ppm in data set [5], in data set [6], in data set [7] and in data set [8] was 90 to 100% throughout.

The molecule `CSc1ncc(Oc2cccc(C(F)(F)F)c2)c(C2=NOC[C@@H](Cc3ccc(C)cc3C)N2)n1` (racemic) [Compound I-017] came in with a chromatographic logP in data set [1] of 5.09. In addition, the inhibition at 20 ppm in data set [3] and in data set [4] was 90 to 100% in each case. For the same molecule, the pest or weed control at 500 ppm fell in the range of 90 to 100% in data set [5], 90 to 100% in data set [6], 90 to 100% in data set [7] and 80 to 89% in data set [8].

With `Cc1ccc(C[C@@H]2CON=C(c3nc(C)ncc3Oc3cccc(Cl)c3)N2)c(Cl)c1` (racemic) [Compound I-018], the chromatographic logP in data set [1] stood at 4.22. Also, the inhibition at 20 ppm in data set [2], in data set [3] and in data set [4] was 90 to 100% throughout. In addition, the pest or weed control at 500 ppm in data set [5], in data set [6], in data set [7] and in data set [8] was 90 to 100% throughout.

In data set [1], `Cc1ncc(Oc2cccc(C(F)(F)F)c2)c(C2=NOC[C@@H](Cc3ccc(SC(F)(F)F)cc3)N2)n1` (racemic) [Compound I-030] registered a chromatographic logP of 4.62. Moreover, the inhibition at 20 ppm in data set [3] and in data set [4] was 90 to 100% throughout. Moreover, the pest or weed control at 500 ppm lay within 80 to 89% in data set [5], 90 to 100% in data set [6], 90 to 100% in data set [7] and 70 to 79% in data set [8].
